This passage reports melting point results from US10047071B1, “Dihydropyrimidinone derivatives” (KING SAUD UNIVERSITY, priority 2018, dated 2018).

One may read the melting point as the temperature of the solid-liquid transition.

Each structure is given as a SMILES string.

In turn, `COc1cccc(C2NC(=O)NC=C2C(=O)c2ccc(-n3ccnc3)cc2)c1` (centres unmarked) [Compound 10, 5-[4-(1H-imidazol-1-yl)benzoyl]-4-(3-methoxyphenyl)-3,4-dihydropyrimidin-2(1H)-one] showed a melting point of 125 to 127 °C.

`O=C1NC=C(C(=O)c2ccc(-n3ccnc3)cc2)C(c2ccc([N+](=O)[O-])cc2)N1` (centres unmarked) [Compound 3, 5-[4-(1H-imidazol-1-yl)benzoyl]-4-(4-nitrophenyl)-3,4-dihydropyrimidin-2(1H)-one] came in with a melting point of 158 to 160 °C.

As for `O=C1NC=C(C(=O)c2ccc(-n3ccnc3)cc2)C(c2cccc(O)c2)N1` (centres unmarked) [Compound 9, 4-(3-hydroxyphenyl)-5-[4-(1H-imidazol-1-yl)benzoyl]-3,4-dihydropyrimidin-2(1H)-one], the melting point was 190 to 192 °C.

In turn, `COc1cc(OC)c(C2NC(=O)NC=C2C(=O)c2ccc(-n3ccnc3)cc2)c(OC)c1` (centres unmarked) [Compound 14, 5-[4-(1H-imidazol-1-yl)benzoyl]-4-(2,4,6-trimethoxyphenyl)-3,4-dihydropyrimidin-2(1H)-one] came in with a melting point of 130 to 132 °C.

Compound `COc1cc(C2NC(=O)NC=C2C(=O)c2ccc(-n3ccnc3)cc2)cc(OC)c1OC` (centres unmarked) [Compound 13, 5-[4-(1H-imidazol-1-yl)benzoyl]-4-(3,4,5-trimethoxyphenyl)-3,4-dihydropyrimidin-2(1H)-one] had a melting point of 128 to 130 °C.

Take `O=C1NC=C(C(=O)c2ccc(-n3ccnc3)cc2)C(c2ccccc2)N1` (centres unmarked) [Compound 1, 5-[4-(1H-imidazol-1-yl)benzoyl]-4-phenyl-3,4-dihydropyrimidin-2(1H)-one]: the melting point was 130 to 132 °C.

In turn, `O=C1NC=C(C(=O)c2ccc(-n3ccnc3)cc2)C(c2cccc([N+](=O)[O-])c2)N1` (centres unmarked) [Compound 4, 5-[4-(1H-imidazol-1-yl)benzoyl]-4-(3-nitrophenyl)-3,4-dihydropyrimidin-2(1H)-one] gave a melting point of 160 to 162 °C.

On to `O=C1NC=C(C(=O)c2ccc(-n3ccnc3)cc2)C(c2ccccc2[N+](=O)[O-])N1` (centres unmarked) [Compound 2, 5-[4-(1H-imidazol-1-yl)benzoyl]-4-(2-nitrophenyl)-3,4-dihydropyrimidin-2(1H)-one], for which the melting point lay in the range of 155 to 157 °C.

`COc1ccccc1C1NC(=O)NC=C1C(=O)c1ccc(-n2ccnc2)cc1` (centres unmarked) [Compound 7, 5-[4-(1H-imidazol-1-yl)benzoyl]-4-(2-methoxyphenyl)-3,4-dihydropyrimidin-2(1H)-one]: the melting point is 140 to 142 °C.

Consider `COc1ccc(C2NC(=O)NC=C2C(=O)c2ccc(-n3ccnc3)cc2)c(OC)c1OC` (centres unmarked) [Compound 12, 5-[4-(1H-imidazol-1-yl)benzoyl]-4-(2,3,4-trimethoxyphenyl)-3,4-dihydropyrimidin-2(1H)-one], for which the melting point was in the range of 138 to 140 °C.

For `O=C1NC=C(C(=O)c2ccc(-n3ccnc3)cc2)C(c2ccc(Cl)cc2Cl)N1` (centres unmarked) [Compound 6, 4-(2,4-dichlorophenyl)-5-[4-(1H-imidazol-1-yl)benzoyl]-3,4-dihydropyrimidin-2(1H)-one], the melting point was in the range of 138 to 140 °C.

`O=C1NC=C(C(=O)c2ccc(-n3ccnc3)cc2)C(c2ccc(Cl)cc2)N1` (centres unmarked) [Compound 5, 4-(4-chlorophenyl)-5-[4-(1H-imidazol-1-yl)benzoyl]-3,4-dihydropyrimidin-2(1H)-one] displayed a melting point of 180 to 182 °C.

With `COc1ccc(C2NC(=O)NC=C2C(=O)c2ccc(-n3ccnc3)cc2)cc1OC` (centres unmarked) [Compound 15, 5-[4-(1H-imidazol-1-yl)benzoyl]-4-(3,4-dimethoxyphenyl)-3,4-dihydropyrimidin-2(1H)-one], the melting point fell in the range of 136 to 138 °C.

Compound `COc1cc(OC)c(C2NC(=O)NC=C2C(=O)c2ccc(-n3ccnc3)cc2)cc1OC` (centres unmarked) [Compound 11, 5-[4-(1H-imidazol-1-yl)benzoyl]-4-(2,4,5-trimethoxyphenyl)-3,4-dihydropyrimidin-2(1H)-one] gave a melting point of 135 to 137 °C.
